Literature values, collected in patent US20240207481A1, “KIT OF GEL-FORMING SOLUTIONS INTENDED FOR PREPARATION OF HYDROGEL BASED ON COVALENTLY CROSSLINKED HYDROXYPHENYL DERIVATIVE OF HYALURONAN FOR PREVENTION OF POSTOPERATIVE COMPLICATIONS RELATED TO FORMATION OF COLORECTAL ANASTOMOSIS, USE OF KIT, METHOD OF PREPARATION OF HYDROGEL AND USE THREREOF” (CONTIPRO A.S., priority 2020, published 2024).

- solubility in water: poorly soluble
- solubility in polar organic solvents (ethanol, chloroform, isopropanol): well soluble
Structure (SMILES): Oc1cc(Cl)ccc1Oc1ccc(Cl)cc1Cl [Triclosan, 2,4,4′-trichloro-2′-hydroxydiphenyl ether]
